pIC50: −log10 of the molar value.
Assays:
[1] = target: T1, B-cell receptor CD22 (Mus musculus) (UniProt P35329); experiment: Ratio of 9-([…]-4-biphenyl)acetamido-9-deoxy- Neu5Gca2-6GalOMP IC50 to compound IC50 for mouse CD22 after 1 hr by competition ELISA
T1 sequence (whole entry): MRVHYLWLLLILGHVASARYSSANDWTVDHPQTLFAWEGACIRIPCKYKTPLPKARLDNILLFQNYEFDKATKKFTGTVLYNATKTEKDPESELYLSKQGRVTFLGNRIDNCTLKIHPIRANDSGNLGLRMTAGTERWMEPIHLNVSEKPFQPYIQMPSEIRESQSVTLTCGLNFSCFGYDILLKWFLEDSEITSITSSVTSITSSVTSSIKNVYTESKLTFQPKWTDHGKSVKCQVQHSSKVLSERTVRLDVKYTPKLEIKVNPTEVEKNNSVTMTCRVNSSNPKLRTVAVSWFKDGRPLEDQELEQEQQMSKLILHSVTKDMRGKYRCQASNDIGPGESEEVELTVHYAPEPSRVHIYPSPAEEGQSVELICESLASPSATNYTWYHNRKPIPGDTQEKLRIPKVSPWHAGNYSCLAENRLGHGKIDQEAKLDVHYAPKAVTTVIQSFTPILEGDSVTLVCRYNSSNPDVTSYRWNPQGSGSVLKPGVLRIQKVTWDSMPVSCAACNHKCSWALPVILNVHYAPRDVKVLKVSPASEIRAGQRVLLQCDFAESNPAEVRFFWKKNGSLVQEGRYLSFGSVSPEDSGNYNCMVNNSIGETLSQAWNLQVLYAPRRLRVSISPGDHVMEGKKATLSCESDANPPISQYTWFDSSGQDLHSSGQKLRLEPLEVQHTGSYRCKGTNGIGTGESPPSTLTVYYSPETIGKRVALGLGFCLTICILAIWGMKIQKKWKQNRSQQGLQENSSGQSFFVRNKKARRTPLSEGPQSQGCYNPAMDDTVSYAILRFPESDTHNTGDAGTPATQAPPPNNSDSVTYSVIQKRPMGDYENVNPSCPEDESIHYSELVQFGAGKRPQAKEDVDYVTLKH

B-cell receptor CD22 = target: T2, B-cell receptor CD22 (Mus musculus, UniProt P35329); experiment: Binding affinity to mouse CD22 after 1 hr by competition ELISA
T2 sequence (P35329 whole entry): T1 sequence (whole entry)

SMILES | Ratio IC50 [1] | pIC50 (B-cell receptor CD22)
O=C(Cc1ccc(-c2ccc(O)cc2)cc1)NC[C@@H](O)[C@@H](O)[C@@H]1O[C@@](OCc2ccc(-c3ccccc3)cc2)(C(=O)O)C[C@H](O)[C@@H]1NC(=O)CO | 20.2 | 6.72
O=C(Cc1ccc(-c2ccc(O)cc2)cc1)NC[C@@H](O)[C@@H](O)[C@@H]1O[C@@](OCc2ccccc2)(C(=O)O)C[C@H](O)[C@@H]1NC(=O)CO | 38.4 | 7.00
CC(=O)N[C@@H]1[C@H]([C@H](O)[C@H](O)CO)O[C@@](OC[C@H]2O[C@@H](OCC[Si](C)(C)C)[C@H](O)[C@@H](O)[C@H]2O)(C(=O)O)C[C@@H]1O |  | < 3.00
C[Si](C)(C)CCO[C@@H]1O[C@H](CO[C@]2(C(=O)O)C[C@H](O)[C@H](NC(=O)CO)[C@H]([C@H](O)[C@H](O)CO)O2)[C@H](O)[C@H](O)[C@H]1O |  | 3.26

Next, values leading:

Ratio IC50 [1] | pIC50 (B-cell receptor CD22) | SMILES
 | 3.52 | COc1ccc(O[C@@H]2O[C@H](CO[C@]3(C(=O)O)C[C@H](O)[C@H](NC(=O)CO)[C@H]([C@H](O)[C@H](O)CO)O3)[C@H](O)[C@H](O)[C@H]2O)cc1
 | 4.08 | COc1ccc(O[C@@H]2O[C@H](CO[C@]3(C(=O)O)C[C@H](O)[C@H](NC(=O)CO)[C@H]([C@H](O)[C@H](O)CN)O3)[C@H](O)[C@H](O)[C@H]2O)cc1
1 |  | COc1ccc(O[C@@H]2O[C@H](CO[C@]3(C(=O)O)C[C@H](O)[C@H](NC(=O)CO)[C@H]([C@H](O)[C@H](O)CNC(=O)Cc4ccc(-c5ccc(O)cc5)cc4)O3)[C@H](O)[C@H](O)[C@H]2O)cc1
